# According to patent US10448639B2, “Fungicidal pyrazoles” (FMC CORPORATION, priority 2009, dated 2019):
# Legend:
# [1] = system: Puccinia recondita f. sp. tritici; experiment: Test I: wheat leaf rust, preventive spray on wheat seedlings, visual disease rating; conditions: for Test I disease control rating / Test I rating (% disease control): wheat leaf rust, 100 = 100% disease control; for Test I disease control rating: sprayed the day before inoculation, 0 = no disease control relative to controls
# Alternaria solani = experiment: Test C: tomato early blight, preventive spray on tomato seedlings, visual disease rating; conditions: for Test C disease control rating / Test C rating (% disease control): tomato early blight, 100 = 100% disease control; for Test C disease control rating: 0 = no disease control relative to controls
# Septoria nodorum = experiment: Test F: Septoria glume blotch, preventive spray on wheat seedlings, visual disease rating; conditions: for Test F disease control rating / Test F rating (% disease control): 100 = 100% disease control; for Test F disease control rating: 0 = no disease control relative to controls
# [2] = system: Puccinia recondita f. sp. tritici; experiment: Test H: wheat leaf rust, curative spray on inoculated wheat seedlings, visual disease rating; conditions: for Test H disease control rating / Test H rating (% disease control): wheat leaf rust, 100 = 100% disease control; for Test H disease control rating: sprayed after inoculation, 0 = no disease control relative to controls
# Septoria tritici = experiment: Test G: wheat leaf blotch, preventive spray on wheat seedlings, visual disease rating; conditions: for Test G disease control rating / Test G rating (% disease control): wheat leaf blotch, 100 = 100% disease control; for Test G disease control rating: sprayed the day before inoculation, 0 = no disease control relative to controls
# Botrytis cinerea = experiment: Test B: tomato Botrytis, preventive spray on tomato seedlings, visual disease rating; conditions: for Test B disease control rating / Test B rating (% disease control): tomato Botrytis, 100 = 100% disease control; for Test B disease control rating: 0 = no disease control relative to controls
# [3] = system: Erysiphe graminis f sp. tritici; experiment: Test J: wheat powdery mildew, preventive spray on wheat seedlings, visual disease rating; conditions: for Test J disease control rating / Test J rating (% disease control): wheat powdery mildew, 100 = 100% disease control; for Test J disease control rating: sprayed the day before inoculation, 0 = no disease control relative to controls
# Source text: General protocol for preparing test suspensions for Tests A-J: the test compounds were first dissolved in acetone in an amount equal to 3% of the final volume and then suspended at the desired concentration (in ppm) in acetone and purified water (50/50 mix by volume) containing 250 ppm of the surfactant Trem® 014 (polyhydric alcohol esters). The resulting test suspensions were then used in Tests A-J. Spraying a 200 ppm test suspension to the point of run-off on the test plants was the equivalent of a rate of 500 g/ha. Unless otherwise indicated, the rating values indicate a 200 ppm test suspension was used. (An asterisk “*” next to the rating value indicates a 40 ppm test suspension was used.)
# The test suspension was sprayed to the point of run-off on wheat seedlings. The following day the seedlings were inoculated with a spore dust of Erysiphe graminis f sp. tritici, (the causal agent of wheat powdery mildew) and incubated in a growth chamber at 20° C. for 8 days, after which time visual disease ratings were made.
# [4] = preventive spray, 0 = no control
# [5] = Septoria glume blotch on wheat, preventive spray, 0 = no control
# [6] = preventive, 0 = no control relative to controls
# [7] = 0 = no control relative to controls
# [8] = Septoria glume blotch, 0 = no control relative to controls
# [9] = curative, 0 = no control relative to controls
compound,measurement,setting,value
Cc1nn(C)c(Nc2ccc(F)cc2Br)c1-c1ccc(F)cc1Br [compound 313],Test I disease control rating,[1],100%
same,Test C disease control rating,Alternaria solani,97%
same,Test F disease control rating,Septoria nodorum; Septoria glume blotch on wheat,51%
same,Test H disease control rating,[2],91%
same,Test G disease control rating,Septoria tritici,100%
same,Test B disease control rating,Botrytis cinerea,100%
same,Test J disease control rating,[3],100%
Cc1ccc(-c2c(C)nn(C)c2Oc2ccc([N+](=O)[O-])cc2Cl)cc1 [compound 52],Test I rating (% disease control),[1]; [4],92%
same,Test C rating (% disease control),Alternaria solani; [4],0%
same,Test F rating (% disease control),Septoria nodorum; [5],0%
same,Test H rating (% disease control),"[2]; curative spray, 0 = no control",0%
same,Test G rating (% disease control),Septoria tritici; [4],97%
same,Test B rating (% disease control),Botrytis cinerea; [4],54%
same,Test J rating (% disease control),[3]; [4],64%
Cc1ncc(Nc2c(-c3ccc(F)cc3Cl)c(C)nn2C)cn1 [compound 269],Test I rating (% disease control),[1]; [6],0%
same,Test C rating (% disease control),Alternaria solani; [7],0%
same,Test F rating (% disease control),Septoria nodorum; [8],0%
same,Test H rating (% disease control),[2]; [9],8%
same,Test G rating (% disease control),Septoria tritici; [7],67%
same,Test B rating (% disease control),Botrytis cinerea; [7],80%
same,Test J rating (% disease control),[3]; [7],0%
Cc1nn(C)c(Nc2ccc(C#N)cc2Cl)c1-c1ccc(F)cc1Cl [compound 162],Test I rating (% disease control),[1]; [6],98%
same,Test C rating (% disease control),Alternaria solani; [7],0%
same,Test F rating (% disease control),Septoria nodorum; [8],0%
same,Test H rating (% disease control),[2]; [9],8%
same,Test G rating (% disease control),Septoria tritici; [7],99%
same,Test B rating (% disease control),Botrytis cinerea; [7],99%
same,Test J rating (% disease control),[3]; [7],94%
COc1cc(F)c(-c2c(C)nn(C)c2Nc2ccc(C#N)cc2Cl)c(F)c1 [compound 117],Test I rating (% disease control),[1]; [4],98%
same,Test C rating (% disease control),Alternaria solani; [4],97%
same,Test F rating (% disease control),Septoria nodorum; [5],82%
same,Test H rating (% disease control),"[2]; curative spray, 0 = no control",11%
same,Test G rating (% disease control),Septoria tritici; [4],100%
same,Test B rating (% disease control),Botrytis cinerea; [4],99%
same,Test J rating (% disease control),[3]; [4],97%
COc1ccc(-c2c(C)nn(C)c2Oc2ccc(C#N)cc2F)c(Br)c1 [compound 319],Test I disease control rating,[1],99%
same,Test C disease control rating,Alternaria solani,88%
same,Test F disease control rating,Septoria nodorum; Septoria glume blotch on wheat,100%
same,Test H disease control rating,[2],0%
same,Test G disease control rating,Septoria tritici,100%
same,Test B disease control rating,Botrytis cinerea,92%
same,Test J disease control rating,[3],95%
COc1cc(F)c(Nc2c(-c3ccc(Cl)cc3Cl)c(C)nn2C)c(F)c1 [compound 62],Test I rating (% disease control),[1]; [4],99%
same,Test C rating (% disease control),Alternaria solani; [4],98%
same,Test F rating (% disease control),Septoria nodorum; [5],84%
same,Test H rating (% disease control),"[2]; curative spray, 0 = no control",98%
same,Test G rating (% disease control),Septoria tritici; [4],98%
same,Test B rating (% disease control),Botrytis cinerea; [4],99%
same,Test J rating (% disease control),[3]; [4],99%
COc1ccc(Nc2c(-c3ccc(F)cc3F)c(C)nn2C)c(F)c1 [compound 228],Test I rating (% disease control),[1]; [6],80%
same,Test C rating (% disease control),Alternaria solani; [7],99%
same,Test F rating (% disease control),Septoria nodorum; [8],0%
same,Test H rating (% disease control),[2]; [9],0%
same,Test G rating (% disease control),Septoria tritici; [7],99%
same,Test B rating (% disease control),Botrytis cinerea; [7],99%
same,Test J rating (% disease control),[3]; [7],99%
Cc1nn(C)c(Nc2ccc(F)cc2Cl)c1-c1ccccc1C(F)(F)F [compound 236],Test I rating (% disease control),[1]; [6],68%
same,Test C rating (% disease control),Alternaria solani; [7],0%
same,Test F rating (% disease control),Septoria nodorum; [8],0%
same,Test H rating (% disease control),[2]; [9],0%
same,Test G rating (% disease control),Septoria tritici; [7],96%
same,Test B rating (% disease control),Botrytis cinerea; [7],97%
same,Test J rating (% disease control),[3]; [7],97%
Cc1nn(C)c(Oc2ncc(C(F)(F)F)cc2Cl)c1-c1ccc(F)cc1Br [compound 261],Test I rating (% disease control),[1]; [6],0%
same,Test C rating (% disease control),Alternaria solani; [7],0%
same,Test F rating (% disease control),Septoria nodorum; [8],0%
same,Test H rating (% disease control),[2]; [9],0%
same,Test G rating (% disease control),Septoria tritici; [7],0%
same,Test B rating (% disease control),Botrytis cinerea; [7],0%
same,Test J rating (% disease control),[3]; [7],47%
Cc1nn(C)c(Nc2cccc(Cl)c2Cl)c1-c1ccc(F)cc1F [compound 231],Test I rating (% disease control),[1]; [6],86%
same,Test C rating (% disease control),Alternaria solani; [7],34%
same,Test F rating (% disease control),Septoria nodorum; [8],0%
same,Test H rating (% disease control),[2]; [9],0%
same,Test G rating (% disease control),Septoria tritici; [7],100%
same,Test B rating (% disease control),Botrytis cinerea; [7],98%
same,Test J rating (% disease control),[3]; [7],100%
Cc1cc(Oc2c(-c3c(F)cc(F)cc3F)c(C)nn2C)ccc1Cl [compound 157],Test I rating (% disease control),[1]; [6],54%
same,Test C rating (% disease control),Alternaria solani; [7],0%
same,Test F rating (% disease control),Septoria nodorum; [8],0%
same,Test H rating (% disease control),[2]; [9],0%
same,Test G rating (% disease control),Septoria tritici; [7],0%
same,Test B rating (% disease control),Botrytis cinerea; [7],0%
same,Test J rating (% disease control),[3]; [7],73%
COc1cc(F)c(-c2c(C)nn(C)c2Oc2ccc(Cl)cc2)c(F)c1 [compound 206],Test I rating (% disease control),[1]; [6],99%
same,Test C rating (% disease control),Alternaria solani; [7],99%
same,Test F rating (% disease control),Septoria nodorum; [8],84%
same,Test H rating (% disease control),[2]; [9],41%
same,Test G rating (% disease control),Septoria tritici; [7],99%
same,Test B rating (% disease control),Botrytis cinerea; [7],99%
same,Test J rating (% disease control),[3]; [7],100%
"Cc1nn(C)c(Oc2c(F)cc(C#N)cc2F)c1-c1ccc(F)cc1Br [Compound 232, 4-[[4-(2-bromo-4-fluorophenyl)-1,3-dimethyl-1H-pyrazol-5-yl]oxy]-3,5-difluorobenzonitrile]",pest or weed control at 200 µg/mL,"[1]; 192 h, read-out: Test I rating (% disease control)",100%
same,pest or weed control at 200 µg/mL,"Alternaria solani; Alternaria solani, in Solanum lycopersicum, 168 h, read-out: Test C rating (% disease control)",99%
same,pest or weed control at 200 µg/mL,"Septoria nodorum; Parastagonospora nodorum, in Triticum aestivum, 192 h, read-out: Test F rating (% disease control)",99%
same,pest or weed control at 200 µg/mL,"[2]; 144 h, read-out: Test H rating (% disease control)",0%
same,pest or weed control at 200 µg/mL,"Septoria tritici; Zymoseptoria tritici, in Triticum aestivum, 504 h, read-out: Test G rating (% disease control)",100%
same,pest or weed control at 200 µg/mL,"Botrytis cinerea; Botrytis cinerea, in Solanum lycopersicum, 120 h, read-out: Test B rating (% disease control)",100%
same,pest or weed control at 200 µg/mL,"[3]; Blumeria graminis, in Triticum aestivum, 192 h, read-out: Test J rating (% disease control)",100%
COc1ccc(Nc2c(-c3ccc(Cl)cc3Cl)c(C)nn2C)cc1OC [compound 74],Test I rating (% disease control),[1]; [4],0%
same,Test C rating (% disease control),Alternaria solani; [4],0%
same,Test F rating (% disease control),Septoria nodorum; [5],0%
same,Test H rating (% disease control),"[2]; curative spray, 0 = no control",4%
same,Test G rating (% disease control),Septoria tritici; [4],25%
same,Test B rating (% disease control),Botrytis cinerea; [4],0%
same,Test J rating (% disease control),[3]; [4],0%
COc1cc(Oc2c(-c3c(F)cc(F)cc3F)c(C)nn2C)ccc1Br [compound 166],Test I rating (% disease control),[1]; [6],68%
same,Test C rating (% disease control),Alternaria solani; [7],0%
same,Test F rating (% disease control),Septoria nodorum; [8],0%
same,Test H rating (% disease control),[2]; [9],0%
same,Test G rating (% disease control),Septoria tritici; [7],97%
same,Test B rating (% disease control),Botrytis cinerea; [7],0%
same,Test J rating (% disease control),[3]; [7],96%
Cc1nn(C)c(Nc2cccc(F)c2F)c1-c1ccc(F)cc1F [compound 214],Test I rating (% disease control),[1]; [6],99%
same,Test C rating (% disease control),Alternaria solani; [7],51%
same,Test F rating (% disease control),Septoria nodorum; [8],0%
same,Test H rating (% disease control),[2]; [9],9%
same,Test G rating (% disease control),Septoria tritici; [7],100%
same,Test B rating (% disease control),Botrytis cinerea; [7],98%
same,Test J rating (% disease control),[3]; [7],100%
COc1ccc(Nc2c(-c3ccc(F)cc3Cl)c(C)nn2C)c(Cl)c1 [compound 322],Test I disease control rating,[1],100%
same,Test C disease control rating,Alternaria solani,93%
same,Test F disease control rating,Septoria nodorum; Septoria glume blotch on wheat,0%
same,Test H disease control rating,[2],99%
same,Test G disease control rating,Septoria tritici,100%
same,Test B disease control rating,Botrytis cinerea,100%
same,Test J disease control rating,[3],100%
Cc1nn(C)c(Nc2ccc(F)cc2F)c1-c1c(F)cccc1F [compound 178],Test I rating (% disease control),[1]; [6],83%
same,Test C rating (% disease control),Alternaria solani; [7],100%
same,Test F rating (% disease control),Septoria nodorum; [8],80%
same,Test H rating (% disease control),[2]; [9],0%
same,Test G rating (% disease control),Septoria tritici; [7],98%
same,Test B rating (% disease control),Botrytis cinerea; [7],100%
same,Test J rating (% disease control),[3]; [7],100%
Cc1nn(C)c(Oc2c(F)cc(C#N)cc2F)c1-c1cc(C(F)(F)F)ccc1Cl [compound 307],Test I disease control rating,[1],0%
same,Test C disease control rating,Alternaria solani,0%
same,Test F disease control rating,Septoria nodorum; Septoria glume blotch on wheat,0%
same,Test H disease control rating,[2],0%
same,Test G disease control rating,Septoria tritici,0%
same,Test B disease control rating,Botrytis cinerea,0%
same,Test J disease control rating,[3],0%
COc1cc(F)c(-c2c(C)nn(C)c2Oc2ccc(Br)c(F)c2)c(F)c1 [compound 153],Test I rating (% disease control),[1]; [6],96%
same,Test C rating (% disease control),Alternaria solani; [7],0%
same,Test F rating (% disease control),Septoria nodorum; [8],73%
same,Test H rating (% disease control),[2]; [9],0%
same,Test G rating (% disease control),Septoria tritici; [7],100%
same,Test B rating (% disease control),Botrytis cinerea; [7],100%
same,Test J rating (% disease control),[3]; [7],98%
